According to ChEMBL document CHEMBL5550091 (2024):
The source made the active and inactive calls. The calls are words filed in the database; no cut-off is given here.

Experiments:
[1] = Displacement of BODIPY TMR-X-labeled P11 peptide from recombinant N-terminal deca-His/SUMO tagged RTA (1 to 267 residues) (unknown origin) expressed in Escherichia coli BL21 (DE3) incubated for 30 mins by competition binding based fluorescence polarization assay
[2] = Displacement of BODIPY TMR-X-labeled P11 peptide from recombinant N-terminal deca-His/SUMO tagged RTA (1 to 267 residues) (unknown origin) expressed in Escherichia coli BL21 (DE3) assessed as inhibition constant incubated for 30 mins by competition binding based fluorescence polarization assay
[3] = Inhibition of recombinant N-terminal deca-His/SUMO tagged RTA (1 to 267 residues) (unknown origin) expressed in Escherichia coli BL21 (DE3) mediated ribosome depurination activity assessed as reduction in ribosomal RNA depurination preincubated with compound for 5 mins followed by addition of rat liver ribosomes and measured after 5 mins by qRT-PCR analysis; assay type: subcellular
[4] = Inhibition of recombinant N-terminal deca-His/SUMO tagged RTA (1 to 267 residues) (unknown origin) expressed in Escherichia coli BL21 (DE3) mediated ribosome depurination activity assessed as maximal inhibition of cellular ribosomal RNA depurination preincubated with compound for 5 mins followed by addition of rat liver ribosomes and measured after 5 mins by qRT-PCR analysis relative to control; assay type: subcellular; conditions: time 10.0 min
cells [5] = assay type: cell-based; conditions: Vero, 2 h
cells [6] = assay type: cell-based; conditions: A549, 2 h
[7] = Inhibition of STX2A1 (unknown origin) mediated ribosomal depurination activity assessed as reduction in ribosomal RNA depurination preincubated with compound for 5 mins followed by addition of rat liver ribosomes and measured after 5 mins by qRT-PCR analysis; assay type: subcellular, Ribosome

For `NC(=O)c1cccc2c1-c1ccccc1C2=O`, which Activity [1] is on record?
Its Activity is “inactive”.

For H-RGWGHPSGYS-OH, which Activity [1] is on record?
Its Activity is “inactive”.

Which results are given for `O=C(O)c1ccc(-c2ccccc2)s1`?
IC50 [1]: 224 µM; Ki [2]: 58 µM; IC50 [3]: 408 µM

What does the source list for `O=C(O)c1cc2c(s1)-c1cc(Cl)ccc1SC2`?
IC50 [1]: 59 µM; Ki [2]: 15 µM

For `Cc1cccc(C)c1-c1ccc(C(=O)O)s1`, which Imax [4] is on record?
The Imax was 102%.

And the IC50 [1]?
Its IC50 is 31 µM.

And the IC50 [3]?
Its IC50 is 45 µM.

With `CC1(C)Cc2cc(C(=O)O)sc2-c2ccccc21` as the compound, how does the Imax [4] read?
The Imax was 112%.

What about the IC50 [3] of the same compound?
The IC50 was 23 µM.

And the EC50 (cells [5])?
Its EC50 is 29 µM.

What about the EC50 (cells [6]) of the same compound?
Its EC50 is 92 µM.

What about the IC50 [7] of the same compound?
The IC50 was 83 µM.

What does the source list for `O=C(O)c1cc2c(s1)-c1ccc(F)cc1CC2`?
Imax [4]: 104%; IC50 [1]: 17 µM; IC50 [3]: 32 µM

With `O=C(O)c1cc2c(s1)-c1ccccc1CC2` as the compound, how does the Imax [4] read?
The Imax was 100%.

What does the source list for H-SDDDMGFGLFD-OH?
IC50 [1]: 4 µM; Ki [2]: 1 µM; IC50 [3]: 31 µM
